Test results from patent US20120149708A1, “MODULATORS OF VIRAL TRANSCRIPTION, AND METHODS AND COMPOSITIONS THEREWITH” (George Mason University, priority 2010, published 2012).

Legend:
Format in all cases: cell-based
[1] = system: ACH2 cells (HIV-1 infected); experiment: Cell viability by trypan blue exclusion, 48 hours; settings: HIV-1 infected; for % Inhibition (percent dead cells) ACH2: 10 μM, 48 hours
Experimental: (§1) TZM-bl cell lines were grown in Dulbecco's modified Eagle's medium supplemented with fetal bovine serum (FBS) (10%, v/v), 2 mM L-glutamine, and antibiotics (penicillin 100 U/ml, streptomycin […]) (cDMEM). HCT116 WT and HCT116 Dicer−/−cell lines were grown in McCoy's medium supplemented with FBS (10%, v/v), 2mM L-glutamine, and antibiotics (penicillin 100 U/ml, streptomycin […]). CEM, ACH2, Jurkat and U937 cells were grown in RPMI 1640 supplemented with FBS, L-glutamine, and antibiotics (penicillin 100 U/ml, streptomycin […]). All cell lines were maintained at 37° C. in 5% (v/v) CO2. […]
(§2) In brief, the inhibition studies were carried out as follows. HIV-1 infected cells ACH2, J1.1, OM10.1, U1 and uninfected CEM, Jurkat T-cells, and U937 were cultured in media. The appropriate inhibitor was added at a concentration of 10 μM. Cells were treated for 48 hours and cell viability was determined using trypan blue exclusion method. Results of such a screen for 19 inhibitors is shown in Table 1 where percent dead cells are indicated each drug tested.
(§3) Again HIV-1 infected and uninfected cells were treated with eighteen Formula I compounds at a drug concentration of 50 nm. Forty-eight hours after treatment, cytotoxicity was determined by trypan blue dye exclusion. Percent inhibition was calculated after obtaining the cell density for each well of the tissue culture plate at the end of 48 hrs.

[2] = system: J1.1 cells (HIV-1 infected); experiment: Cell viability by trypan blue exclusion, 48 hours; settings: HIV-1 infected; for % Inhibition (percent dead cells) J1.1: 10 μM, 48 hours
Experimental: as §2, §3

[3] = system: U1 cells (HIV-1 infected); experiment: Cell viability by trypan blue exclusion, 48 hours; settings: HIV-1 infected; for % Inhibition (percent dead cells) U1: 10 μM, 48 hours
Experimental: as §2, §3

[4] = system: CEM cells (uninfected); experiment: Cell viability by trypan blue exclusion, 48 hours; settings: for % Inhibition (percent dead cells) CEM: 10 μM, 48 hours
Experimental: (§4) TZM-bl cell lines were grown in Dulbecco's modified Eagle's medium supplemented with fetal bovine serum (FBS) (10%, v/v), 2 mM L-glutamine, and antibiotics (penicillin 100 U/ml, streptomycin […]) (cDMEM). HCT116 WT and HCT116 Dicer−/−cell lines were grown in McCoy's medium supplemented with FBS (10%, v/v), 2mM L-glutamine, and antibiotics (penicillin 100 U/ml, streptomycin […]). CEM, ACH2, Jurkat and U937 cells were grown in RPMI 1640 supplemented with FBS, L-glutamine, and antibiotics (penicillin 100 U/ml, streptomycin […]). All cell lines were maintained at 37° C. in 5% (v/v) CO2.
(§5) ACH2 cells are infected with HIV-1; TZM-bl cells contain a stably-integrated HIV-1 LTR-Luciferase reporter; CEM, Jurkat, and U937 cells are uninfected. Transfections were carried out using Attractene (Qiagen) lipid reagent. Cells were cultured to confluence and pelleted at 4° C. for 15 min at 3,000 rpm. The cell pellets were washed twice with 25 ml of phosphate-buffered saline (PBS) with Ca2+ and Mg2+ (Quality Biological) and centrifuged once more. Cell pellets were resuspended in lysis buffer (50 mM Tris-HCl, pH 7.5, 120 mM NaCl, 5 mM EDTA, 0.5%, v/v, NP-40, 50 mM NaF, 0.2 mM Na3VO4, 1 mM DTT, one complete protease cocktail tablet/50 ml (Roche) and incubated on ice for 20 min, with gentle vortexing every 5 min. Cell lysates were transferred to eppendorf tubes and were centrifuged at 10,000 rpm for 10 min. Supernatants were transferred to a fresh tube where protein concentrations were determined using Bio-Rad protein assay (Bio-Rad, Hercules, Calif.).
as §2, §3

[5] = system: HIV-1 infected and uninfected cells; experiment: Classification of inhibitors by effect on viability of infected versus uninfected cells; settings: high
Description: The inhibitors were classified into three categories: high, moderate or poor, according to their effect on cellular viability in both HIV-1 infected and uninfected cells. Among the compounds tested in this study, CR8, a purine analog bearing a 2-pyridyl group para to the phenyl ring position 6 of the purine was the most promising drug candidate that killed HIV-1 infected cells, while having little or no effect on the death of uninfected cells.

[6] = system: Jurkat T-cells (uninfected); experiment: Cell viability by trypan blue exclusion, 48 hours; settings: for % Inhibition (percent dead cells) Jurkat: 10 μM, 48 hours
Experimental: as §1, §2, §3

[7] = system: OM10.1 cells (HIV-1 infected); experiment: Cell viability by trypan blue exclusion, 48 hours; settings: HIV-1 infected; for % Inhibition (percent dead cells) OM10.1: 10 μM, 48 hours
Experimental: as §2, §3

[8] = system: U937 cells (uninfected); experiment: Cell viability by trypan blue exclusion, 48 hours; settings: for % Inhibition (percent dead cells) U937: 10 μM, 48 hours
Experimental: as §4, §5, §2, §3

[9] = system: HIV-1 LTR-CAT reporter; experiment: CAT assay of Tat-mediated transactivation in HCT116 WT and Dicer-/- cells; settings: HCT116 WT (Dicer) versus Dicer-/-; 48 hrs; Flavopiridol, CR8#13, F07#13 100 nm, 9AA 1000 nm
Experimental: Six hours later, the transfected cells were treated with DMSO, Flavopirodol (100 nm), CR8#13 (100 nm), F07#13 (100 nm), and 9AA (1000 nm). Treated cells were incubated in complete DMEM for 48 hrs at 37° C. Cells were harvested and cell extracts were used for CAT analysis. One tenth the amount of HCT116 Dicer−/−extract compared to HCT116 WT was used for CAT analysis. […] The corresponding bar graphs in A and B show values that represent the percentage of conversion of the [14C] chloramphenicol substrate in the CAT assay.
Various cells lines were transfected with the HIV-1 LTRCAT plasmid and pc-Tat to initiate the LTR transcription, and subsequently subjected to various drug treatments. After 48 hrs, cells were lysed and CAT assays were performed as previously described (Guendel et al, 2009; Van Duyne et al, 2008; Easley et al, 2010).
To evaluate the role on microRNA machinery in inhibition of viral transcription activity, HCT116 colon carcinoma cell lines that either contained a WT Dicer (HCT116 WT) or lacked the Dicer protein (HCT116 Dicer-−/−) were first transfected with the HIV-1 LTR-CAT reporter construct. The HIV-1 LTR transcription was activated with pc-Tat and following incubation for 6 hours was treated with DMSO (negative control), Flavopiridol (positive control), CR8#13, F07#13, or 9AA.
Cells were harvested 48 hrs-post treatment and processed for CAT assays (FIGS. 3A and B). […] Based on this observation the inventors hypothesize that the microRNA machinery, Dicer and Drosha, plays an inhibitory role in HIV-1 transcription.

[10] = 10 μM, moderate or poor by effect on viability of infected and uninfected cells

CC[C@H](CO)Nc1nc(NCc2ccc(-c3ccccn3)cc2)n2ncc(C(C)C)c2n1 [MRT3-028, R-2-(8-isopropyl-4-(4-(pyridine-2-yl)benzylamino)pyrazolo[1,5-α]-1,3,5-triazine-2-ylamino)butan-1-ol]
Inhibition Percentage ACH2 ([1]; 50 nM, 48 hrs): +++ (~75%)
Inhibition Percentage J1.1 ([2]; 50 nM, 48 hrs): +++ (~75%)
Inhibition Percentage U1 ([3]; 50 nM, 48 hrs): + (~25%)
Inhibition Percentage CEM ([4]; 50 nM, 48 hrs): ++ (~50%)
Selectivity ([5]; 50 nM, moderate or poor): High

CN1C(=O)C(=C2Nc3ccccc3C2=NO)c2cccc(Br)c21 [1-methyl-7-bromo-indirubin-3′-oxime]
% Inhibition (percent dead cells) Jurkat [6]: − (1-5%)
% Inhibition (percent dead cells) ACH2 [1]: − (1-5%)
% Inhibition (percent dead cells) J1.1 [2]: − (1-5%)
% Inhibition (percent dead cells) U1 [3]: − (1-5%)
% Inhibition (percent dead cells) OM10.1 [7]: − (1-5%)
% Inhibition (percent dead cells) CEM [4]: − (1-5%)
% Inhibition (percent dead cells) U937 [8]: − (1-5%)
Selectivity [5, 10]: Poor

Nc1nccc(-c2c3c(O)ccnc3n3c(N)nccc23)n1 [Variollin B]
% Inhibition (percent dead cells) Jurkat [6]: − (1-5%)
% Inhibition (percent dead cells) ACH2 [1]: ++ (~50%)
% Inhibition (percent dead cells) J1.1 [2]: + (~25%)
% Inhibition (percent dead cells) U1 [3]: − (1-5%)
% Inhibition (percent dead cells) OM10.1 [7]: − (1-5%)
% Inhibition (percent dead cells) CEM [4]: − (1-5%)
% Inhibition (percent dead cells) U937 [8]: − (1-5%)
Selectivity [5, 10]: Moderate

CC(C)Oc1ccnc2[nH]cc(-c3ccnc(N)n3)c12 [Meriolin 6]
% Inhibition (percent dead cells) Jurkat [6]: − (1-5%)
% Inhibition (percent dead cells) ACH2 [1]: +++ (~75%)
% Inhibition (percent dead cells) J1.1 [2]: +++ (~75%)
% Inhibition (percent dead cells) U1 [3]: − (1-5%)
% Inhibition (percent dead cells) OM10.1 [7]: ++++ (~90%)
% Inhibition (percent dead cells) CEM [4]: − (1-5%)
% Inhibition (percent dead cells) U937 [8]: ++ (~50%)
Selectivity [5, 10]: High

CC[C@H](CO)Nc1nc(Nc2cccc(-c3ccccn3)c2)c2ncn(C(C)C)c2n1 [R-DRF053]
% Inhibition (percent dead cells) Jurkat [6]: − (1-5%)
% Inhibition (percent dead cells) ACH2 [1]: − (1-5%)
% Inhibition (percent dead cells) J1.1 [2]: − (1-5%)
% Inhibition (percent dead cells) U1 [3]: − (1-5%)
% Inhibition (percent dead cells) OM10.1 [7]: − (1-5%)
% Inhibition (percent dead cells) CEM [4]: − (1-5%)
% Inhibition (percent dead cells) U937 [8]: − (1-5%)
Selectivity [5, 10]: Poor

Nc1c2ccccc2nc2ccccc12 [9AA]
inhibition of viral transcription (CAT) [9]: only moderate inhibitory effects

COc1ccnc2[nH]cc(-c3ccnc(N)n3)c12 [Meriolin 3]
% Inhibition (percent dead cells) Jurkat [6]: − (1-5%)
% Inhibition (percent dead cells) ACH2 [1]: ++ (~50%)
% Inhibition (percent dead cells) J1.1 [2]: + (~25%)
% Inhibition (percent dead cells) U1 [3]: − (1-5%)
% Inhibition (percent dead cells) OM10.1 [7]: − (1-5%)
% Inhibition (percent dead cells) CEM [4]: − (1-5%)
% Inhibition (percent dead cells) U937 [8]: − (1-5%)
Selectivity [5, 10]: Moderate

CC(C)c1cnn2c(NCc3ccc(-c4ccccn4)cc3)nc(N[C@H](CO)C(C)O)nc12 (stereo partly drawn) [MRT3-007, (2R, 3R)-2-(8-isopropyl-4-(4-(pyridine-2-yl)benzylamino)pyrazolo[1,5-α]-1,3,5-triazine-2-ylamino)butane-1,3-diol]
inhibition at 0.05 µM ([6]; Homo sapiens, Jurkat, 50 nM, 48 hrs, read-out: Inhibition Percentage Jurkat): 25%
inhibition at 0.05 µM ([1]; Human immunodeficiency virus 1, ACH-2, 48 h, 50 nM, 48 hrs, read-out: Inhibition Percentage ACH2): 50%
inhibition at 0.05 µM ([2]; Human immunodeficiency virus 1, 48 h, 50 nM, 48 hrs, read-out: Inhibition Percentage J1.1): 50%
inhibition at 0.05 µM ([3]; Human immunodeficiency virus 1, 48 h, 50 nM, 48 hrs, read-out: Inhibition Percentage U1): 50%
inhibition at 0.05 µM ([7]; Human immunodeficiency virus 1, 50 nM, 48 hrs, read-out: Inhibition Percentage OM10.1): 50%
inhibition at 0.05 µM ([4]; Homo sapiens, CCRF-CEM, 48 h, 50 nM, 48 hrs, read-out: Inhibition Percentage CEM): 25%
inhibition at 0.05 µM ([8]; Homo sapiens, U-937, 50 nM, 48 hrs, read-out: Inhibition Percentage U937): 25%
Selectivity ([5]; 50 nM, moderate or poor): Moderate

CCCOc1ccnc2[nH]cc(-c3ccnc(N)n3)c12 [Meriolin5]
% Inhibition (percent dead cells) Jurkat [6]: − (1-5%)
% Inhibition (percent dead cells) ACH2 [1]: +++ (~75%)
% Inhibition (percent dead cells) J1.1 [2]: ++ (~50%)
% Inhibition (percent dead cells) U1 [3]: − (1-5%)
% Inhibition (percent dead cells) OM10.1 [7]: ++++ (~90%)
% Inhibition (percent dead cells) CEM [4]: − (1-5%)
% Inhibition (percent dead cells) U937 [8]: ++ (~50%)
Selectivity [5, 10]: High

CCOc1ccnc2[nH]cc(-c3ccnc(N)n3)c12 [Meriolin4]
% Inhibition (percent dead cells) Jurkat [6]: ++ (~50%)
% Inhibition (percent dead cells) ACH2 [1]: +++ (~75%)
% Inhibition (percent dead cells) J1.1 [2]: +++ (~75%)
% Inhibition (percent dead cells) U1 [3]: +++ (~75%)
% Inhibition (percent dead cells) OM10.1 [7]: +++ (~75%)
% Inhibition (percent dead cells) CEM [4]: + (~25%)
% Inhibition (percent dead cells) U937 [8]: ++ (~50%)
Selectivity [5, 10]: High
